Data from publication PMC6007354 (2016).

Assays:
[1] = tested on: tRNA (GCGCGCGCGC) (RNA, other) GCGCGCGCGC; assay: 1H NMR titration; settings: 0.01 M HEPES pH 7.4 in D2O; shifts of probe and base protons
[2] = tested on: tRNA (AUAUAUAUAU) (RNA, other) AUAUAUAUAU; assay: 1H NMR titration; settings: 0.01 M HEPES pH 7.4 in D2O; shifts of probe and base protons
[3] = tested on: tRNA (GCGCGCGCGC) (RNA, other) GCGCGCGCGC; assay: fluorescence turn-on (443 nm); settings: 10 mM HEPES pH 7.4; probe 10 uM; quantum yield 0.22; no constant
[4] = tested on: tRNA (AUAUAUAUAU) (RNA, other) AUAUAUAUAU; assay: fluorescence turn-on (443 nm); settings: 10 mM HEPES pH 7.4; probe 10 uM; quantum yield 0.21; no constant

Measured: binding

C[n+]1ccn(Cc2ccc3ccccc3c2)c1
yes: all assays above
